Legend:
[1] = tested on: person with extremely severe tardive dyskinesia and dystonia; experiment: Case Report 4: patient self-report of TD treatment effects (weekly log); format: in vivo, human; settings: for Memory: Memory and concentration / Well-being: General well being: 10 is best; for Side effects: 10 is none; for Balance: Difficulty maintaining balance / Face/tongue: Severity of face and tongue movements / Sweating / Trunk: Severity of trunk movements: 10 is worst
Text: A person had extremely severe tardive dyskinesia and dystonia, as a result of over 15 years of treatment of bipolar disorder with lithium and an assortment of neuroleptics. Their involuntary movements consisted of forced extension of the trunk, torsion of the lower legs, plantar flexion of the left foot, chorea of both arms, writhing of the tongue and grimacing. In addition, they had profuse sweating associated with the involuntary movements. To sit still in a chair, they had to forcefully grip both arms. In the chair, forced extension of the trunk practically lifted them out of the chair. Their trunk and leg movements led to impaired balance, with a staggering gait and frequent near-falls. The continual severe movements were associated with impairment in concentration, which made their work less efficient. By virtue of talent and intelligence, however, they were able to work competitively as a software engineer. Because their bipolar disorder remained an active problem, continued neurolepric treatment was necessary to maintain their mental health. They were maintained on lithium carbonate 300 mg three times a day, and risperidone 4 mg per day.
Their movement disorder had been treated with benzodiazepines, anticholinergics, and dopamine agonists, all without meaningful benefit. They were then treated with acamprosate, first at a dosage of 333 mg three times a day, and then at a dosage of 666 mg three times a day. Acamprosate therapy was then augmented with magnesium sulfate, 300 mg three times a day.
The patient maintained a weekly log of symptoms, which is reproduced here as Table 4. […] For several of their symptoms—trunk movement, balance, and sweating 666 mg of acamprosate three times a day of acamprosate was more efficacious than 333 mg three • 2) The addition of magnesium was associated with further improvement in several symptoms, i.e., movements of the face and tongue, neck and limbs; • 3) Benefits of acamprosate increased with continued therapy; • 4) Mental function, as indicated by subjective memory, improved along with the involuntary movements; • 5) The addition of memantine aggravated the involuntary movements.

[2] = tested on: person two with long-standing TD; experiment: Case Report 1: clinical observation of TD with blepharospasm; format: in vivo, human; settings: Case 1; for effect on involuntary movements of TD: clinical observation, acamprosate 333 mg four times a day; for cognitive function (energy, attention, concentration): subjective and objective
Procedure: Palliative treatment with alprazolam (an anxiolytic and GABA agonist via modulation; dosage 0.25 mg four times a day) and trihexyphenidyl (an anticholinergic antiparkinson drug that inhibits dopamine re-uptake at synapses; dosage 2 mg twice a day) was prescribed by another physician.
Initially, their other medications were maintained unchanged.
Nimodipine was discontinued, and the patient was begun on memantine at a dosage of 10 mg twice a day.
For the following 10 days they added 250 mg three times a day of chelated magnesium.

3,338 patients = settings: alcoholism treatment; cited from earlier work
[3] = tested on: person with extremely severe tardive dyskinesia and dystonia; experiment: Case Report 4: clinical course and physician examination; format: in vivo, human; settings: Case 4
[4] = tested on: person two with long-standing TD; experiment: Trail Making Test, Trails B (Case 1); format: in vivo, human; settings: ON drug; for Trails B Seconds: lower score better
Text: (§1) The tests showing such results included Simple Reaction Time, the Trail Making Test (both parts) and the Paced Auditory Serial Addition Test (PASAT). Choice reaction time, a test requiring both basic attention and concentration on a specific task that must be kept in mind, was slightly better on acamprosate, consistent with the hypothesis that general cognitive function, as opposed to simple attention, improves with acamprosate treatment.
(§2) The following tables report on the results of the neuropsychological tests (Drug I is memantine and Drug II is acamprosate): […]

[5] = tested on: person two with long-standing TD; experiment: Simple Reaction Time (neuropsychological test, Case 1); format: in vivo, human; settings: lower score better
Procedure: On acamprosate, the patient was able to sustain concentration for prolonged periods. […] The patient's cognitive improvement was also assessed using formal neuropsychological measures. The patient was tested while on the drug, then taken off of the drug and tested two days later. On the drug, the patient was able to recall 13 of the 15 items after a short delay as well as 13 of the 15 items after a long delay, as measured by the Rey Auditory Verbal Learning Test. This was in comparison to the patient's ability while off the drug to recall only 7 of the 15 items after a short delay as well as 8 of the items after a long delay in tests performed. In addition, the patient was able to recognize all 15 of the items while on acamprosate but while off the drug (and while having been off of memantine for over 2 months) the patient could only recognize 10 of the items. The order of testing would give the advantage of familiarity to the off-drug condition. Nonetheless, the difference in favor of the on-drug condition was substantial.
as §1, §2

[6] = tested on: person two with long-standing TD; experiment: California Verbal Learning Test 16-items (Case 1); format: in vivo, human; settings: ON drug
Text: as §2

[7] = week 1, regimen 1: 333 mg three times a day
[8] = week 2, regimen 2: 666 mg three times a day

CC(=O)NCCCS(=O)(=O)O [acamprosate, calcium N-acetylhomotaurinate]
Limbs [1, 7]: 6
Neck [1, 7]: 7
Memory: Memory and concentration [1, 7]: 9
Well-being: General well being [1, 7]: 8
Side effects [1, 7]: 7
Balance: Difficulty maintaining balance [1, 7]: 7
Face/tongue: Severity of face and tongue movements [1, 7]: 5
Sweating [1, 7]: 8
Trunk: Severity of trunk movements [1, 7]: 8
Limbs [1, 8]: 7
Neck [1, 8]: 7
Memory: Memory and concentration [1, 8]: 9
Well-being: General well being [1, 8]: 8
Side effects [1, 8]: 7
Balance: Difficulty maintaining balance [1, 8]: 5
Face/tongue: Severity of face and tongue movements [1, 8]: 7
Sweating [1, 8]: 5
Trunk: Severity of trunk movements [1, 8]: 6
involuntary movements two months after reinstitution [2]: absent except for very mild movements during times of stress
time to recovery of energy, stamina, concentration and memory after re-instituting treatment [2]: Within two days
time able to read a book ([2]; 333 mg four times a day): over an hour at a time
effect on involuntary movements of TD ([2]; memantine 10 mg twice a day): became imperceptible
fatigue ([2]; on the acamprosate regime): significantly decreased
cognitive function (energy, attention, concentration) [2]: improved significantly
side effects in controlled trials (3,338 patients): no severe medical or neurological side effects
time after resuming drug until previous level of benefit regained [3]: 72 h
time off drug until movement disorder returned to baseline [3]: 24 h
Trails B Errors [4]: 0
Trails B Seconds [4]: 43″
Simple Reaction Time 500 Green ([5]; ON drug): 286 ms
Simple Reaction Time 500 Red ([5]; ON drug): 272 ms
Simple Reaction Time 1500 Green ([5]; ON drug): 261 ms
Simple Reaction Time 1500 Red ([5]; ON drug): 264 ms

CC12CC3CC(C)(C1)CC(N)(C3)C2 [memantine]
side effects at reduced dose ([2]; 5 mg three times a day): without perceptible side effects
time to reduction of involuntary movements ([2]; 10 mg twice a day): ≤ 24 h
effect on involuntary movements of TD ([2]; memantine 10 mg twice a day): substantially greater degree than had been observed with nimodipine
adverse effects ([2]; nimodipine 30 mg four times a day, memantine 10 mg twice a day): a sense of mild intoxication
cognitive function (energy, attention, concentration) [2]: improved energy, attention, and concentration
effect on movement disorder ([3]; memantine 10 mg three times a day added to acamprosate and magnesium sulfate): aggravated their movement disorder
Trails B Errors [4]: 0
Trails B Seconds [4]: 118″
CVLT List A 1-5 total (80 max) ([6]; higher score better): 53
CVLT List A Trial 1 ([6]; higher score better): 7
CVLT List A Trial 5 ([6]; higher score better): 13
CVLT List B ([6]; higher score better): 7
CVLT Long-Delay Cued Recall ([6]; higher score better): 15
CVLT Long-Delay Free Recall ([6]; higher score better): 12
CVLT Recognition Hits ([6]; higher score better): 16
CVLT Short-Delay Cued Recall ([6]; higher score better): 13
CVLT Short-Delay Free Recall ([6]; higher score better): 10
CVLT False Positives ([6]; lower score better): 3
CVLT Intrusions ([6]; lower score better): 6
CVLT Perseverations ([6]; lower score better): 23
Simple Reaction Time 500 Green [5]: 284 ms
Simple Reaction Time 500 Red [5]: 266 ms
Simple Reaction Time 1500 Green [5]: 212 ms
Simple Reaction Time 1500 Red [5]: 224 ms

Reference: patent publication US7745493B2, “Methods of treating tardive dyskinesia and other movement disorders” (priority 1998, dated 2010)
